Source: patent US12365656B2, “Oxazolidinone compounds and methods of use thereof as antibacterial agents” (priority 2019, dated 2025)
Converted amounts (≈) assume the structure as drawn. Like-named read-outs stand apart in the source and are kept apart here.

Legend:
Assay type in all cases: cell-based
[1] = system: mitochondrial protein synthesis in HepG2 cells; assay: Mitochondrial protein synthesis assay; conditions: 4 days, COX-1 relative to SDH-A / Janus Green, In Cell ELISA, read-out: MPS IC50
[2] = system: Mycobacterium tuberculosis (Mtb-GFP; H37Rv pMSP12::GFP); assay: microbe, parasite or virus in culture; conditions: for MIC: Mycobacterium tuberculosis, H37RV, 168 h, pH 6.8, read-out: Mtb Glu MITC95
[3] = system: Mycobacterium tuberculosis (Mtb-GFP; H37Rv pMSP12::GFP); assay: microbe, parasite or virus in culture; conditions: for MIC: Mycobacterium tuberculosis, H37RV, 168 h, pH 6.8, read-out: Mtb Cho MITC95

In the case of “4-{2,6-difluoro-4-[(5R)-5-(hydroxymethyl)-2-oxo-1,3-oxazolidin-3-yl]phenyl}-4-hydroxy-1λ^6-thiane-1,1-dione [Example 34]”, the IC50 [1] is reported as over 100 µM, the “Mtb Glu MITC95” value ([2]; glucose carbon source, pH 6.8, 7-day growth, GFP fluorescence, lowest concentration inhibiting 95% of growth) is reported as 25 µM and the “Mtb Cho MITC95” value ([3]; cholesterol carbon source, pH 6.8, 7-day growth, GFP fluorescence, lowest concentration inhibiting 95% of growth) is reported as 25 µM.
Work on `CS(=O)(=O)c1ccc(-c2ccc(N3C[C@H](CO)OC3=O)cc2F)cc1` [Example 1, (5R)-3-[2-fluoro-4′-(methylsulfonyl)biphenyl-4-yl]-5-(hydroxymethyl)-1,3-oxazolidin-2-one] yielded an IC50 ([1]; Homo sapiens, 96 h) of 7 µM, an MIC [2] of 1 µM (≈ 0.365 µg/mL) and an MIC [3] of 1.2 µM (≈ 0.438 µg/mL).
For `O=C1O[C@@H](CO)CN1c1cc(F)c(C2(F)CCS(=O)(=O)CC2)c(F)c1` [Example 2, (5R)-3-[3,5-difluoro-4-(4-fluoro-1,1-dioxidotetrahydro-2H-thiopyran-4-yl)phenyl]-5-(hydroxymethyl)-1,3-oxazolidin-2-one], the IC50 ([1]; Homo sapiens, 96 h) was over 100 µM, the MIC [2] was 1.9 µM (≈ 0.721 µg/mL) and the MIC [3] was 2.2 µM (≈ 0.835 µg/mL).
Molecule `CSc1ccc(-c2ccc(N3C[C@H](CO)OC3=O)cc2F)cc1` [Example 4, (5R)-3-[2-fluoro-4′-(methylsulfanyl)[1,1′-biphenyl]-4-yl]-5-(hydroxymethyl)-1,3-oxazolidin-2-one] has an IC50 ([1]; Homo sapiens, 96 h) of over 100 µM, an MIC [2] of 0.21 µM (≈ 0.07 µg/mL) and an MIC [3] of 0.24 µM (≈ 0.08 µg/mL).
With `O=C1O[C@@H](CO)CN1c1ccc(-c2ccn3ncnc3c2)c(F)c1` [Example 8, (5R)-3-[3-fluoro-4-([1,2,4]triazolo[1,5-a]pyridin-7-yl)phenyl]-5-(hydroxymethyl)-1,3-oxazolidin-2-one] the IC50 ([1]; Homo sapiens, 96 h) was 3.7 µM, the MIC [2] was 1.5 µM (≈ 0.492 µg/mL) and the MIC [3] was 1.8 µM (≈ 0.591 µg/mL).
Work on `O=C1O[C@@H](CO)CN1c1ccc(-c2ccc(OCCO)cc2)c(F)c1` [Example 12, (5R)-3-[2-fluoro-4'-(2-hydroxyethoxy)[1,1′-biphenyl]-4-yl]-5-(hydroxymethyl)-1,3-oxazolidin-2-one] yielded an IC50 ([1]; Homo sapiens, 96 h) of 19 µM, an MIC [2] of 0.78 µM (≈ 0.271 µg/mL) and an MIC [3] of 0.39 µM (≈ 0.135 µg/mL).
For `CN1CC(C)(S(=O)(=O)c2ccc(-c3ccc(N4C[C@H](CO)OC4=O)cc3F)cc2)C1` [Example 14, (5R)-3-[4'-(1,3-dimethylazetidine-3-sulfonyl)-2-fluoro[1,1′-biphenyl]-4-yl]-5-(hydroxymethyl)-1,3-oxazolidin-2-one], the IC50 ([1]; Homo sapiens, 96 h) was 23 µM, the MIC [2] was 0.78 µM (≈ 0.339 µg/mL) and the MIC [3] was 0.78 µM (≈ 0.339 µg/mL).
`O=C1O[C@@H](CO)CN1c1cc(F)c(C2=CCS(=O)(=O)CC2)c(F)c1` [Example 15, 4-{2,6-difluoro-4-[(5R)-5-(hydroxymethyl)-2-oxo-1,3-oxazolidin-3-yl]phenyl}-3,6-dihydro-1λ6-thiopyran-1,1(2H)-dione] gave an IC50 ([1]; Homo sapiens, 96 h) of over 100 µM, an MIC [2] of 1.6 µM (≈ 0.575 µg/mL) and an MIC [3] of 1.6 µM (≈ 0.575 µg/mL).
In the case of `N#CC1(c2c(F)cc(N3C[C@H](CO)OC3=O)cc2F)CCS(=O)(=O)CC1` [Example 16, 4-{2,6-difluoro-4-[(5R)-5-(hydroxymethyl)-2-oxo-1,3-oxazolidin-3-yl]phenyl}-1,1-dioxo-1λ6-thiane-4-carbonitrile], the IC50 ([1]; Homo sapiens, 96 h) is reported as 50 µM, the MIC [2] is reported as 1.6 µM (≈ 0.618 µg/mL) and the MIC [3] is reported as 1.6 µM (≈ 0.618 µg/mL).
With `O=C1O[C@@H](CO)CN1c1cc(F)c(N2CC3CS(=O)(=O)CC3C2)c(F)c1` (stereo partly drawn) [Example 17, 5-{2,6-difluoro-4-[(5R)-5-(hydroxymethyl)-2-oxo-1,3-oxazolidin-3-yl]phenyl}hexahydro-2λ6-thieno[3,4-c]pyrrole-2,2(1H)-dione] the IC50 ([1]; Homo sapiens, 96 h) was over 100 µM, the MIC [2] was 2.3 µM (≈ 0.893 µg/mL) and the MIC [3] was 3.1 µM (≈ 1.2 µg/mL).
Work on `CC(=O)N1CCN(c2c(F)cc(N3C[C@H](CO)OC3=O)cc2F)C2CC21` (stereo partly drawn) [Example 18, (5R)-3-[4-(5-acetyl-2,5-diazabicyclo[4.1.0]heptan-2-yl)-3,5-difluorophenyl]-5-(hydroxymethyl)-1,3-oxazolidin-2-one] yielded an IC50 ([1]; Homo sapiens, 96 h) of over 100 µM, an MIC [2] of 3.1 µM (≈ 1.14 µg/mL) and an MIC [3] of 3.1 µM (≈ 1.14 µg/mL).
`Cc1nnc2cc(-c3ccc(N4C[C@H](CO)OC4=O)cc3F)ccn12` [Example 19, (5R)-3-[3-fluoro-4-(3-methyl[1,2,4]triazolo[4,3-a]pyridin-7-yl)phenyl]-5-(hydroxymethyl)-1,3-oxazolidin-2-one] showed an IC50 ([1]; Homo sapiens, 96 h) of 18 µM, an MIC [2] of 1.2 µM (≈ 0.411 µg/mL) and an MIC [3] of 1.2 µM (≈ 0.411 µg/mL).
`CN1CC(S(=O)(=O)c2ccc(-c3ccc(N4C[C@H](CO)OC4=O)cc3F)cc2)C1` [Example 20, (5R)-3-[2-fluoro-4′-(1-methylazetidine-3-sulfonyl)[1,1′-biphenyl]-4-yl]-5-(hydroxymethyl)-1,3-oxazolidin-2-one] was tested, and the IC50 ([1]; Homo sapiens, 96 h) was 7.4 µM, the MIC [2] was 0.39 µM (≈ 0.164 µg/mL) and the MIC [3] was 0.39 µM (≈ 0.164 µg/mL).
In the case of `O=C1O[C@@H](CO)CN1c1cc(F)c(N2CCN(C(=O)C3CC3)C3CC32)c(F)c1` (stereo partly drawn) [Example 21, (5R)-3-{4-[5-(cyclopropanecarbonyl)-2,5-diazabicyclo[4.1.0]heptan-2-yl]-3,5-difluorophenyl}-5-(hydroxymethyl)-1,3-oxazolidin-2-one], the IC50 ([1]; Homo sapiens, 96 h) is reported as over 13 µM, the MIC [2] is reported as 6.3 µM (≈ 2.48 µg/mL) and the MIC [3] is reported as 3.1 µM (≈ 1.22 µg/mL).
`O=C1O[C@@H](CO)CN1c1cc(F)c(N2CCS(=O)(=O)CC2)c(F)c1` [Example 22, 4-{2,6-difluoro-4-[(5R)-5-(hydroxymethyl)-2-oxo-1,3-oxazolidin-3-yl]phenyl}-1λ^6-thiomorpholine-1,1-dione] gave an IC50 ([1]; Homo sapiens, 96 h) of over 100 µM, an MIC [2] of 3.9 µM (≈ 1.41 µg/mL) and an MIC [3] of 6.3 µM (≈ 2.28 µg/mL).
`CN1CC(C)(S(=O)(=O)c2ccc(-c3ccc(N4C[C@H](CO)OC4=O)cc3)cc2)C1` [Example 23, (5R)-3-[4'-(1,3-dimethylazetidine-3-sulfonyl)[1,1'-biphenyl]-4-yl]-5-(hydroxymethyl)-1,3-oxazolidin-2-one] gave an IC50 ([1]; Homo sapiens, 96 h) of over 100 µM, an MIC [2] of 1.6 µM (≈ 0.666 µg/mL) and an MIC [3] of 3.1 µM (≈ 1.29 µg/mL).
With `O=C1O[C@@H](CO)CN1c1ccc(C2(F)CCS(=O)(=O)CC2)c(F)c1` [Example 24, 4-fluoro-4-[2-fluoro-4-[(5R)-5-(hydroxymethyl)-2-oxo-1,3-oxazolidin-3-yl]phenyl}-1λ^6-thiane-1,1-dione] the IC50 ([1]; Homo sapiens, 96 h) was over 50 µM, the MIC [2] was 6.3 µM (≈ 2.28 µg/mL) and the MIC [3] was 6.3 µM (≈ 2.28 µg/mL).
In the case of `O=C1O[C@@H](CO)CN1c1cc(F)c(C2(F)CCS(=O)(=O)CC2)c(F)c1F` [Example 25, 4-fluoro-4-{2,3,6-trifluoro-4-[(5R)-5-(hydroxymethyl)-2-oxo-1,3-oxazolidin-3-yl]phenyl}-1λ^6-thiane-1,1-dione], the IC50 ([1]; Homo sapiens, 96 h) is reported as over 100 µM, the MIC [2] is reported as 6.3 µM (≈ 2.5 µg/mL) and the MIC [3] is reported as 6.3 µM (≈ 2.5 µg/mL).
Work on `Cn1cc(-c2ccc(N3C[C@H](CO)OC3=O)cc2F)ccc1=O` [Example 26, 5-{2-fluoro-4-[(5R)-5-(hydroxymethyl)-2-oxo-1,3-oxazolidin-3-yl]phenyl}-1-methylpyridin-2(1H)-one] yielded an IC50 ([1]; Homo sapiens, 96 h) of 28 µM, an MIC [2] of 6.3 µM (≈ 2.01 µg/mL) and an MIC [3] of 6.3 µM (≈ 2.01 µg/mL).
Molecule `CN=S1(=O)CCN(c2c(F)cc(N3C[C@H](CO)OC3=O)cc2F)CC1` [Example 27, 4-{2,6-difluoro-4-[(5R)-5-(hydroxymethyl)-2-oxo-1,3-oxazolidin-3-yl]phenyl}-1-(methylimino)-1λ^6-thiomorpholin-1-one] has an IC50 ([1]; Homo sapiens, 96 h) of over 100 µM, an MIC [2] of 6.3 µM (≈ 2.37 µg/mL) and an MIC [3] of 6.3 µM (≈ 2.37 µg/mL).
`CS(=O)(=O)c1ccc(-c2ccc(N3C[C@H](CO)OC3=O)cc2)cc1` [Example 28, (5R)-5-(hydroxymethyl)-3-[4′-(methanesulfonyl)[1,1′-biphenyl]-4-yl]-1,3-oxazolidin-2-one] showed an IC50 ([1]; Homo sapiens, 96 h) of 32 µM, an MIC [2] of 1.6 µM (≈ 0.556 µg/mL) and an MIC [3] of 1.6 µM (≈ 0.556 µg/mL).
Work on `O=C1O[C@@H](CO)CN1c1ccc(-c2ccc(S(=O)(=O)C3CCC3)cc2)c(F)c1` [Example 29, (5R)-3-[4′-(cyclobutanesulfonyl)-2-fluoro[1,1′-biphenyl]-4-yl]-5-(hydroxymethyl)-1,3-oxazolidin-2-one] yielded an IC50 ([1]; Homo sapiens, 96 h) of over 100 µM, an MIC [2] of 3.1 µM (≈ 1.26 µg/mL) and an MIC [3] of 3.1 µM (≈ 1.26 µg/mL).
`O=C1O[C@@H](CO)CN1c1cc(F)c(C2(F)CCS(=O)(=O)CC2)c(Cl)c1` [Example 30, 4-{2-chloro-6-fluoro-4-[(5R)-5-(hydroxymethyl)-2-oxo-1,3-oxazolidin-3-yl]phenyl}-4-fluoro-1λ^6-thiane-1,1-dione] was tested, and the IC50 ([1]; Homo sapiens, 96 h) was over 100 µM, the MIC [2] was 6.3 µM (≈ 2.49 µg/mL) and the MIC [3] was 13 µM (≈ 5.15 µg/mL).
`O=C1O[C@@H](CO)CN1c1ccc(C2(F)CCS(=O)(=O)CC2)c(Cl)c1` [Example 31, 4-{2-chloro-4-[(5R)-5-(hydroxymethyl)-2-oxo-1,3-oxazolidin-3-yl]phenyl}-4-fluoro-1λ^6-thiane-1,1-dione] was tested, and the IC50 ([1]; Homo sapiens, 96 h) was over 100 µM, the MIC [2] was 13 µM (≈ 4.91 µg/mL) and the MIC [3] was 13 µM (≈ 4.91 µg/mL).
`O=C1O[C@@H](CO)CN1c1ccc(-c2ccc(S(=O)(=O)C3CC3)cc2)cc1` [Example 32, (5R)-3-[4′-(cyclopropanesulfonyl)[1,1′-biphenyl]-4-yl]-5-(hydroxymethyl)-1,3-oxazolidin-2-one] showed an IC50 ([1]; Homo sapiens, 96 h) of 30 µM, an MIC [2] of 3.1 µM (≈ 1.16 µg/mL) and an MIC [3] of 3.1 µM (≈ 1.16 µg/mL).
`O=C1O[C@@H](CO)CN1c1ccc(-c2ccc(S(=O)(=O)C3COC3)cc2)cc1` [Example 33, (5R)-5-(hydroxymethyl)-3-[4′-(oxetane-3-sulfonyl)[1,1′-biphenyl]-4-yl]-1,3-oxazolidin-2-one] gave an IC50 ([1]; Homo sapiens, 96 h) of 9.7 µM, an MIC [2] of 3.1 µM (≈ 1.21 µg/mL) and an MIC [3] of 2.3 µM (≈ 0.896 µg/mL).
Molecule `Cc1cc(N2C[C@H](CO)OC2=O)ccc1C1(F)CCS(=O)(=O)CC1` [Example 35, 4-fluoro-4-{4-[(5R)-5-(hydroxymethyl)-2-oxo-1,3-oxazolidin-3-yl]-2-methylphenyl}-1λ^6-thiane-1,1-dione] has an IC50 ([1]; Homo sapiens, 96 h) of over 100 µM, an MIC [2] of 25 µM (≈ 8.94 µg/mL) and an MIC [3] of 50 µM (≈ 17.9 µg/mL).
Molecule `O=C1O[C@@H](CO)CN1c1ccc(C2(F)CCS(=O)(=O)CC2)cc1` [Example 36, 4-fluoro-4-{4-[(5R)-5-(hydroxymethyl)-2-oxo-1,3-oxazolidin-3-yl]phenyl}-1λ^6-thiane-1,1-dione] has an IC50 ([1]; Homo sapiens, 96 h) of over 50 µM, an MIC [2] of 50 µM (≈ 17.2 µg/mL) and an MIC [3] of 38 µM (≈ 13 µg/mL).
In the case of `O=C1O[C@@H](CO)CN1c1ccc(C2(F)CCS(=O)(=O)CC2)c(C(F)(F)F)c1` [Example 37, 4-fluoro-4-{4-[(5R)-5-(hydroxymethyl)-2-oxo-1,3-oxazolidin-3-yl]-2-(trifluoromethyl)phenyl}-1λ^6-thiane-1,1-dione], the IC50 ([1]; Homo sapiens, 96 h) is reported as over 100 µM, the MIC [2] is reported as 50 µM (≈ 20.6 µg/mL) and the MIC [3] is reported as 50 µM (≈ 20.6 µg/mL).
